Experimental data from ChEMBL document CHEMBL5096210, “Discovery of Betulinic Acid Derivatives as Potent Intestinal Farnesoid X Receptor Antagonists to Ameliorate Nonalcoholic Steatohepatitis” (J Med Chem, 2022).
The source made the active and inactive calls.

Key:
[1] = system: Liver; assay: Anti-NASH activity in GAN diet-induced […] mouse liver assessed as reduction in hepatocyte ballooning by Sirius red staining based analysis; type: functional, cell-based
[2] = organism: Mus musculus; assay: Anti-NASH activity in GAN diet-induced […] mouse assessed as reduction in hepatic triglycerides level; type: functional, organism-based
[3] = system: Liver; assay: Anti-NASH activity in GAN diet-induced […] mouse liver assessed as reduction in hepatocyte fat by Sirius red staining based analysis; type: functional, cell-based
[4] = system: Liver; assay: Anti-NASH activity in GAN diet-induced […] mouse liver assessed as reduction in macrosteatosis by H and E staining based analysis; type: functional
[5] = organism: Mus musculus; assay: Anti-NASH activity in GAN diet-induced […] mouse assessed as bile acid level in gall bladder; type: functional, organism-based
[6] = system: Liver; assay: Anti-NASH activity in GAN diet-induced […] mouse liver assessed as reduction in hepatocyte ballooning by Oil Red O staining based assay; type: functional, cell-based
[7] = system: Mus musculus; assay: Anti-NASH activity in GAN diet-induced […] mouse assessed as reduction of sphinogo-myelin level in serum administered orally for 12 weeks; type: functional, organism-based; details: route po
[8] = organism: Mus musculus; assay: Anti-NASH activity in GAN diet-induced […] mouse assessed as reduction in Col3a1 level; type: functional, organism-based
[9] = organism: Mus musculus; assay: Anti-NASH activity in GAN diet-induced […] mouse assessed as reduction in Fabp3 mRNA expression level; type: functional, organism-based
[10] = system: Liver; assay: Anti-NASH activity in GAN diet-induced […] mouse liver assessed as reduction in hepatocyte collagen deposition by Oil Red O staining based assay; type: functional, cell-based
[11] = organism: Mus musculus; assay: Anti-NASH activity in GAN diet-induced […] mouse assessed as reduction in hepatic cholesterol level; type: functional, organism-based
[12] = organism: Mus musculus; assay: Anti-NASH activity in GAN diet-induced […] mouse assessed as downregulation of P-ycard level; type: functional, organism-based
[13] = organism: Mus musculus; assay: Anti-NASH activity in GAN diet-induced […] mouse assessed as bile acid level in serum; type: functional, organism-based
[14] = organism: Mus musculus; assay: Anti-NASH activity in GAN diet-induced […] mouse assessed as reduction in Plin2 mRNA expression level; type: functional, organism-based
[15] = organism: Mus musculus; assay: Anti-NASH activity in GAN diet-induced […] mouse assessed as downregulation of Ccl2 level; type: functional, organism-based
[16] = system: Mus musculus; assay: Anti-NASH activity in HFMCD diet-induced […] mouse assessed as reduction in ALT serum level at 30 mg/kg, po for 4 weeks; type: functional, organism-based
[17] = organism: Mus musculus; assay: Anti-NASH activity in GAN diet-induced […] mouse assessed as suppression of FXR expression; type: functional, organism-based
[18] = biological target: T1, Bile acid receptor (Mus musculus) (UniProt Q60641); assay: In vivo antagonist activity against FXR in microbeta depleted mouse assessed as reduction in taurocholic acid induced Fgf15 mRNA expression in ileum at 10 mg/kg, po incubated for 2 to 48 hrs; type: functional, organism-based; details: time 2-48 hrs
T1 sequence (whole entry): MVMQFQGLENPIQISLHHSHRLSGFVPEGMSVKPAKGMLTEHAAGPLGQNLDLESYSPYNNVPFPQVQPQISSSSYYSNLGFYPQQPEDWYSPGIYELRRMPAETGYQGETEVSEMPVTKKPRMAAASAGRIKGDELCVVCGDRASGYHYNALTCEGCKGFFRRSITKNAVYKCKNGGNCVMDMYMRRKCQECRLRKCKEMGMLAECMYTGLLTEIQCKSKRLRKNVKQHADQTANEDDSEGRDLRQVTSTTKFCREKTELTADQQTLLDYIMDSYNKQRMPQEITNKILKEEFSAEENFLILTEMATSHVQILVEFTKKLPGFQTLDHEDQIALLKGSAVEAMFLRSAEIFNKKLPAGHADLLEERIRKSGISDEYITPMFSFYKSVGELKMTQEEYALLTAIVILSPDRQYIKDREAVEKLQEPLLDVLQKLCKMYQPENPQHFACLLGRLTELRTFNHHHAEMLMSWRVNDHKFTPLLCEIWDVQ

[19] = system: Liver; assay: Anti-NASH activity in GAN diet-induced […] mouse liver assessed as reduction in hepatocyte ballooning by H and E staining based analysis; type: functional, cell-based
[20] = system: Liver; assay: Anti-NASH activity in GAN diet-induced […] mouse liver assessed as reduction in hepatocyte fat by Oil Red O staining based assay; type: functional, cell-based
[21] = organism: Mus musculus; assay: Anti-NASH activity in GAN diet-induced […] mouse assessed as increase in FXR protein by Western blot analysis; type: functional, organism-based
[22] = system: Mus musculus; assay: Anti-NASH activity in GAN diet-induced […] mouse assessed as reduction of ceramide level in serum administered orally for 12 weeks; type: functional, organism-based; details: route po

Measured: Activity

CCCC(=O)O[C@@H]1CC[C@]2(C)[C@H]3CC[C@@H]4[C@H]5[C@H](C(C)C)CC[C@]5(C(=O)NCC(=O)O)CC[C@@]4(C)[C@]3(C)CC[C@H]2C1(C)C
active: all assays above
